The results in this text go back to ChEMBL document CHEMBL3137667, “[Drug-induced liver injury; fourteenth updated edition of the bibliographic database of liver injuries and related drugs]” (Gastroenterol Clin Biol, 2004).

The conditions of data set [1]: human, serum, 4383 h.
The conditions of data set [2]: human, serum.
For data set [3] the following is noted: human.
A short description of data set [4]: Highest frequency of moderate liver toxicity observed during clinical trials, expressed as a percentage. [column '% BIOL' in source]. To be noted: human.
The conditions of data set [5]: human. This is another data set of the same source.
For data set [6] the following is noted: human. The source holds these as a separate data set.
For data set [7] the following is noted: human. This is another data set of the same source.
The conditions of data set [8]: human. The source holds these as a separate data set.
Data set [9] can be described thus: Proposed mechanism(s) of liver damage. [column 'MEC' in source]. To be noted: human.
Data set [10] can be described thus: Highest frequency of acute liver toxicity observed during clinical trials, expressed as a percentage. [column '% AIGUE' in source]. To be noted: human.
The conditions of data set [11]: human. The source holds these as a separate data set.
The conditions of data set [12]: human. This is another data set of the same source.
For data set [13] the following is noted: human, serum. This is another data set of the same source.
A short description of data set [14]: Comments (NB not yet translated). [column 'COMMENTAIRES' in source]. The following applies: human.
For data set [15] the following is noted: human. The source holds these as a separate data set.
The conditions of data set [16]: human. The source holds these as a separate data set.
Data set [17] in a line: Times to onset, minimal and maximal, observed in the indexed observations. [column 'DELAI' in source]. To be noted: human.
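For Hepatotoxicity (association with vascular disease) in this document: count of indexed literature references reporting vascular liver injury in humans, e.g. peliosis hepatitis, hepatic veno-occlusive disease or Budd-Chiari syndrome.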
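For Hepatotoxicity (benign tumour) in this document: value is a count of indexed literature references citing a benign tumour confirmed by histopathology.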
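For Hepatotoxicity (choleostasis) in this document: human cholestatic liver injury, shown by histopathology or by peak ALT or AST elevation over alkaline phosphatase ratio below 2, value counts indexed literature reports.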
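For Hepatotoxicity (chronic liver disease) in this document: chronic liver injury confirmed by histopathology or persistently raised serum aminotransferase activity beyond 6 months, value given as the count of indexed literature references.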
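For Hepatotoxicity (cirrhosis) in this document: value is a count of indexed literature references reporting cirrhosis confirmed by histopathology.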
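For Hepatotoxicity (cytolytic) in this document: human cytolytic liver injury, shown by histopathology or by a ratio above 5 of peak ALT or AST elevation to alkaline phosphatase elevation, value counts indexed references.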
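For Hepatotoxicity (granulomatous hepatitis) in this document: value is a count of indexed literature references reporting granulomatous liver disease confirmed by histopathology.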
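For Hepatotoxicity (malignant tumour) in this document: malignant tumour confirmed by histopathology, value gives the count of indexed literature references reporting it.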
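For Hepatotoxicity (severe hepatitis) in this document: human clinical data: severe hepatitis, meaning potentially life-threatening liver failure or clinically observed cases, the value counts how many indexed literature references report it.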
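For Hepatotoxicity (steatosis) in this document: steatosis confirmed by histopathology, value is the count of indexed references.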

As to `CCc1cc2c(s1)N(C)C(=O)CN=C2c1ccccc1Cl` [CLOTIAZEPAM], the “Hepatotoxicity (chronic liver disease)” value in data set [1] worked out at 0. The “Hepatotoxicity (moderate)” value was determined as 0 in [2] and 0% in data set [4]. In addition, the “Hepatotoxicity (severe hepatitis)” value in [3] is 0. Besides, the “Hepatotoxicity (steatosis)” value in [5] was found to be 0. Further, in data set [6], the “Hepatotoxicity (cytolytic)” value was found to be 2. Also, the “Hepatotoxicity (association with vascular disease)” value in [7] is given as 0. Moreover, in data set [8], the “Hepatotoxicity (choleostasis)” value is given as 0. Further, in data set [9], the “Hepatotoxicity (mechanism)” value is recorded as “Allergic”. In addition, the “Hepatotoxicity (acute)” value came out at 0% in data set [10] and 2 in [13]. The “Hepatotoxicity (malignant tumour)” value in data set [11] worked out at 0. In data set [12], the “Hepatotoxicity (benign tumour)” value worked out at 0. Besides, the “Hepatotoxicity (comment)” value in data set [14] was “AC_ANTI-N”. In addition, in data set [15], the “Hepatotoxicity (cirrhosis)” value came out at 0. In addition, the “Hepatotoxicity (granulomatous hepatitis)” value in [16] amounted to 0. In data set [17], the “Hepatotoxicity (time to onset)” value is recorded as 7 months.

Regarding `CN1CCC(=C2c3ccccc3C=Cc3ccccc32)CC1` [CYPROHEPTADINE], the “Hepatotoxicity (chronic liver disease)” value in data set [1] is recorded as 0. Further, the “Hepatotoxicity (moderate)” value is 0 in [2] and 0% in [4]. Further, in data set [3], the “Hepatotoxicity (severe hepatitis)” value was 0. For the same molecule, the “Hepatotoxicity (steatosis)” value in data set [5] was found to be 0. In addition, the “Hepatotoxicity (cytolytic)” value in [6] was 3. Further, in [7], the “Hepatotoxicity (association with vascular disease)” value was 0. In addition, the “Hepatotoxicity (choleostasis)” value in data set [8] is listed as 3. Also, the “Hepatotoxicity (mechanism)” value in data set [9] was “Allergic”. Moreover, the entries for the “Hepatotoxicity (acute)” value in data set [10] and in [13] were 0% and 5, respectively. The “Hepatotoxicity (malignant tumour)” value in data set [11] is 0. In addition, the “Hepatotoxicity (benign tumour)” value in [12] was found to be 0. The “Hepatotoxicity (comment)” value in [14] was “CHOLESTASE_PROLONGEE CHOLANGITE”. Also, the “Hepatotoxicity (cirrhosis)” value in data set [15] is recorded as 0. In data set [16], the “Hepatotoxicity (granulomatous hepatitis)” value is given as 0. In [17], the “Hepatotoxicity (time to onset)” value is on record as 1 week - 1 month.

With `CC(=O)Oc1cccc2c1C(=O)c1c(OC(C)=O)cc(C(=O)O)cc1C2=O` [DIACEREIN], the “Hepatotoxicity (chronic liver disease)” value in [1] stood at 0. The “Hepatotoxicity (moderate)” value in data set [2] is on record as 0; in data set [4], 0%. Moreover, the “Hepatotoxicity (severe hepatitis)” value in [3] was found to be 1. For the same molecule, the “Hepatotoxicity (steatosis)” value in [5] came to 0. The “Hepatotoxicity (cytolytic)” value in data set [6] is 1. The “Hepatotoxicity (association with vascular disease)” value in [7] was 0. Further, the “Hepatotoxicity (choleostasis)” value in [8] stood at 1. In addition, the “Hepatotoxicity (mechanism)” value in data set [9] was “Allergic”. For the same molecule, the “Hepatotoxicity (acute)” value in data set [10] turned out to be 0%; in [13], 2. Moreover, in [11], the “Hepatotoxicity (malignant tumour)” value was found to be 0. Besides, the “Hepatotoxicity (benign tumour)” value in data set [12] is 0. Further, the “Hepatotoxicity (comment)” value in data set [14] is recorded as “AC_ANTI-N”. For the same molecule, the “Hepatotoxicity (cirrhosis)” value in [15] was determined as 0. Moreover, in [16], the “Hepatotoxicity (granulomatous hepatitis)” value is recorded as 0. Besides, the “Hepatotoxicity (time to onset)” value in [17] is 10 days.

With `Cc1onc(-c2c(Cl)cccc2Cl)c1C(=O)N[C@@H]1C(=O)N2[C@@H]1SC(C)(C)[C@@H]2C(=O)O` [DICLOXACILLIN], in data set [1], the “Hepatotoxicity (chronic liver disease)” value came out at 1. For the same molecule, the “Hepatotoxicity (moderate)” value in data set [2] came out at 2; in data set [4], 0%. In addition, in data set [3], the “Hepatotoxicity (severe hepatitis)” value is reported as 0. In addition, the “Hepatotoxicity (steatosis)” value in data set [5] is listed as 0. In addition, in data set [6], the “Hepatotoxicity (cytolytic)” value is given as 0. In data set [7], the “Hepatotoxicity (association with vascular disease)” value is reported as 0. Also, the “Hepatotoxicity (choleostasis)” value in data set [8] was 3. In addition, the “Hepatotoxicity (mechanism)” value in data set [9] is reported as “Allergic”. In addition, the entries for the “Hepatotoxicity (acute)” value in data set [10] and in data set [13] were 0% and 4, respectively. Moreover, the “Hepatotoxicity (malignant tumour)” value in [11] was 0. Besides, in data set [12], the “Hepatotoxicity (benign tumour)” value was determined as 0. Also, the “Hepatotoxicity (comment)” value in [14] is listed as “CHOLESTASE_PROLONGEE”. The “Hepatotoxicity (cirrhosis)” value in [15] is recorded as 0. The “Hepatotoxicity (granulomatous hepatitis)” value in data set [16] turned out to be 1. Also, the “Hepatotoxicity (time to onset)” value in data set [17] is listed as 5 days - 2 months.
